The results in this text go back to patent US8241607B2, “Use of fructose-based compounds for the diagnosis of cancer” (priority 2005, dated 2012).

Common to all, as to format: cell-based
The test system of test [1] is MAPK pathway. In words: Western blot of MAPK pathway in PANC-1 cells. To be noted: 5.5 mM sugar, 48 h. The procedure:
FIG. 23 depicts Western blot analysis examining MAPK pathway expression in accordance with an embodiment of the present invention. PANC-1 pancreatic cancer cells were incubated in 2 mM glucose, 5.5 mM glucose or 5.5 mM fructose for 48 hours, after which Western blot analysis on total protein lysates was employed to examine phosphorylated MEK (pMEK), pRSK, and pCREB, and corresponding total MEK, RSK, and CREB levels.
Several signal transduction pathways may be involved in fructose-mediated pancreatic cancer growth but given the importance of the MAPK pathway in proliferation, the inventors believed that MAPK was involved. In the MAPK pathway, MEK mediated phosphorylation of the p44/42 MAP kinase (ERK) is the first step in this cascade, which results in phosphorylation of p90^Rsk, leading to transcriptional activation of CREB, and AP1, activating gene transcription and promoting cellular growth. The inventors employed Western blot analysis to examine MAPK pathway expression in pancreatic cancer cells incubated in 2 mM glucose, 5.5 mM glucose, and 5.5 mM fructose for 48 hours. Levels of the active phosphorylated proteins, pERK, pRSK, and pMEK were normalized to total ERK, RSK, and MEK levels respectively, and compared between the fructose-, and glucose-treated PANC-1 cells.
(A western blot detects proteins with antibodies after separation by electrophoresis.)

Test [2] deals with MAPK pathway. In words: Western blot of MAPK pathway in breast cancer cells. Here is the method:
FIG. 11 depicts increased breast cancer phosphorylated-MEK, phosphorylated Rsk, and phosphorylated CREB in accordance with an embodiment of the present invention. MCF-7 breast cancer cells were incubated in 2 mM glucose, 5 mM glucose or 5 mM fructose for 24 hours, after which Western blot analysis on total protein lysates was employed to examine components of the MAP kinase pathway. […] Total MEK, Rsk, and CREB levels, and β-actin served as loading controls.
Although several signal transduction pathways are likely involved in the fructose-mediated enhanced breast cancer growth and while not wishing to be bound by any particular theory, the inventors believe that the MAP-kinase pathway is involved. The inventors have used Western blot analysis to examine the MAPK pathway in breast cancer cells incubated in 2 mM glucose, 5.5 mM glucose, and 5.5 mM fructose for 48 hours. […] Activation of MEK, and subsequently ERK results in phosphorylation of p90^Rsk, which leads to transcriptional activation of CREB and AP1, which bind to cAMP or AP1 response elements respectively, activating gene transcription and promoting cellular growth.

The test system of test [3] is fructokinase-1 (FK-1) mRNA. Kind of test: RT-PCR of fructokinase-1 mRNA in MCF-7 cells. To be noted: MCF-7 grown in 5 mM fructose vs 2 mM and 5 mM glucose. The procedure: FIG. 7 depicts fructokinase-1 expression in accordance with an embodiment of the present invention. Breast cancer cells (MCF-7) express Fructokinase-1 (FK-1). RT-PCR was used to measure fructokinase-1 (FK-1) mRNA levels in MCF-7 cells following growth in 2 mM glucose, 5.5 mM glucose, or 5.5 mM fructose for 24 h, and in two human breast cancers (BT 1 & 2), and matched adjacent normal breast tissue (NB 1 & 2) from the same individual. […] Human liver, and exclusion of template served as positive and negative controls.
The inventors used RT-PCR analysis and specific primer pairs (SEQ ID NO: 1 (3′[…]), SEQ ID NO: 2 (5′[…])) to examine fructokinase-1 (FK-1) mRNA levels in glucose- or fructose-treated breast cancer cells. […] Also examined were FK-1 mRNA levels in two surgically resected human breast cancers, and paired adjacent normal breast tissue from the same individual. FK-1 mRNA was detectable in both normal and tumor tissue.

Setting [4] is: breast cancer cells, 5.5 mM fructose, 24 h, vs 5.5 and 2 mM glucose.

For `O=C(CO)[C@@H](O)[C@H](O)[C@H](O)CO` [fructose], in test [1], the pERK expression result was “highest”, the pMEK expression result was “highest” and the pRSK expression entry was “highest”. Moreover, the “phospho-MEK (pMEK) expression” value in test [2] (MCF-7 and MDA-MB231, 5.5 mM fructose vs 5.5 and 2 mM glucose) is on record as “increased expression”. Moreover, in test [2] (setting [4]), the “phospho-CREB (pCREB)” value is recorded as “increased” and the “phospho-Rsk (pRsk)” value was “increased”. For the same compound, in test [3], the “FK-1 mRNA levels” value was “highest FK-1 levels”.
